Like-named read-outs stand apart in the source and are kept apart here.
Assays:
[1] = tested on: EV-D68 strain USA-MO/18947; assay: CPE inhibition assay in RD cells; type: cell-based, Human enterovirus D68; details: read-out: Mean EC50 ± SD
[2] = tested on: EV-D68 strain USA-MO/18949; assay: CPE inhibition assay in RD cells; type: cell-based, Human enterovirus D68; details: read-out: Mean EC50 ± SD
[3] = tested on: EV-D68 strain USA-IL/18956; assay: CPE inhibition assay in RD cells; type: cell-based, Human enterovirus D68; details: read-out: Mean EC50 ± SD
[4] = tested on: EV-D68 1962 prototype strain (Fermon); assay: CPE inhibition assay in RD cells; type: cell-based, Human enterovirus D68; details: read-out: Mean EC50 ± SD
four EV-D68 strains = assay: microbe, parasite or virus in culture; type: cell-based, Human enterovirus D68; details: for activity against EV-D68 strains in words: highest concentration tested 10 μM; for EC50: read-out: EC50 values, range over all four EV-D68 strains
[5] = typical fluoxetine dosing; cited from earlier work
EV-D68 Fermon strain = assay: CPE inhibition assay over a range of virus doses; type: cell-based, Human enterovirus D68; details: Enterovirus D, EVD68; Fermon strain, 100-fold virus dose range, five half-log dilutions; upper end printed as >10 μM; data not shown; read-out: EC50 values over a range of virus doses
Protocol: Antiviral activity was assessed in a homogeneous cell-based assay that measured inhibition of viral cytopathic effect in human rhabdomyosarcoma cells (RD; ATCC CCL-136). The viruses included three representative EV-D68 strains from the 2014 outbreak (USA-MO/18947, USA-MO/18949, USA-IL/18956) (Brown et al. 2014. Seven Strains of Enterovirus D68 Detected in the United States during the 2014 Severe Respiratory Disease Outbreak. Genome Announc 2:e01201-01214), as well as the 1962 prototype strain (Fermon) (Schieble et al. 1967. A probable new human picornavirus associated with respiratory diseases. Am J Epidemiol 85:297-310). For the CPE inhibition assay, half-log10 dilutions of drug compound (10 μM to 0.001 μM) were combined with 100 CCID50 (50% cell culture infectious dose) of virus and added to monolayers of RD cells (5000 cells per well) in 384-well, white, flat-bottom microplates. Plates were incubated at 33° C. and 5% CO2 for five days, and cell viability was assessed using ATPLite® (Perkin Elmer, Waltham, Mass.) by adding 15 μL of cell lysis buffer and then 15 μL of substrate solution, following the manufacturer's recommendations.
In both studies, the methods were somewhat different from our approach. […] For the other compounds tested, similar EC50 values were observed across this same dose range. […]

EV-D68 strain Fermon = assay: DAS181 specific anti-viral assay, time of addition; type: cell-based, Human enterovirus D68; details: read-out: DAS181 Mean EC50 ± SD
Protocol: (§1) As shown in the Table 2, DAS181 was tested to assess antiviral activity of the compound using a cell-based assay, and using enterovirus D68 strains (EV-D68). In this assay, using four specific EV-D68 strains, the compound was added at different time-points to each of the strains. The three time conditions tested were: (i) DAS181 preincubated with cells for 24 h before virus infection; (ii) DAS181 added simultaneously with virus; and (iii) DAS181 added 4 h post-infection. Fermon, an original prototypic strain, was used as control.

[6] = tested on: EV-D68 strain USA-IL/238139; assay: DAS181 specific anti-viral assay, time of addition; type: cell-based, Human enterovirus D68; details: read-out: DAS181 Mean EC50 ± SD
Protocol: as §1

[7] = tested on: EV-D68 strain USA-MO/238102; assay: DAS181 specific anti-viral assay, time of addition; type: cell-based, Human enterovirus D68; details: read-out: DAS181 Mean EC50 ± SD
Protocol: as §1

[8] = tested on: EV-D68 strain USA-MO/238121; assay: DAS181 specific anti-viral assay, time of addition; type: cell-based, Human enterovirus D68; details: read-out: DAS181 Mean EC50 ± SD
Protocol: as §1

[9] = tested on: enterovirus D68 strains (EV-D68); assay: DAS181 specific anti-viral assay, text summary over all strains and conditions; type: cell-based, Human enterovirus D68; details: all conditions and all enterovirus strains tested
Protocol: as §1

[10] = Sialidase activity with fluorogenic substrate 4-MU-NANA; type: biochemical; details: 37° C.
Protocol: The sialidase activity of DAS181 was measured using the fluorogenic substrate 4-methylumbelliferyl-N-acetyl-α-D-neuraminic acid (4-MU-NANA; Sigma). One unit of sialidase is defined as the amount of enzyme that releases 10 nmol of MU from 4-MU-NANA in 10 minutes at 37° C. (50 mM CH3COOH—NaOH buffer, pH 5.5) in a reaction that contains 20 nmol of 4-MU-NANA in a 0.2 ml volume (Potier et al., Anal. Biochem., 94:287-296, 1979). The specific activity of DAS181 was determined to be 1,300 U/mg protein (0.77 μg DAS181 protein per unit of activity).

[11] = Enterovirus D, EVD68, RD, 120 h
[12] = Enterovirus D, EVD68, 120 h, RD cells, 100 CCID50 virus, 33° C., five days, strain USA-MO/18947
[13] = Enterovirus D, EVD68, 120 h, RD cells, 100 CCID50 virus, 33° C., five days, strain USA-MO/18949
[14] = Enterovirus D, EVD68, 120 h, RD cells, 100 CCID50 virus, 33° C., five days, strain USA-IL/18956
[15] = Enterovirus D, EVD68, 120 h, RD cells, 100 CCID50 virus, 33° C., five days, strain Fermon
[16] = RD cells, 100 CCID50 virus, 33° C., five days, strain USA-MO/18947
[17] = RD cells, 100 CCID50 virus, 33° C., five days, strain USA-MO/18949
[18] = RD cells, 100 CCID50 virus, 33° C., five days, strain USA-IL/18956
[19] = RD cells, 100 CCID50 virus, 33° C., five days, strain Fermon
[20] = 24 hr preincubation before infection
[21] = Drug addition 4 hr after infection
[22] = No preincubation (added simultaneously with virus)

CCOC(=O)C1=C[C@@H](OC(CC)CC)[C@H](NC(C)=O)[C@@H](N)C1 [Oseltamivir]
EC50 [1, 11]: > 10000 nM
EC50 [2, 11]: > 10000 nM
EC50 [3, 11]: > 10000 nM
EC50 [4, 11]: > 10000 nM

NC(=O)c1nc(F)c[nH]c1=O [Favipiravir, favipiravir]
EC50 [1, 12]: > 10000 nM
EC50 [2, 13]: > 10000 nM
EC50 [3, 14]: > 10000 nM
EC50 [4, 15]: > 10000 nM

COc1ccc(OCc2ccc(COc3c(Cl)cccc3Cl)cc2)c(Cl)c1 [Pocapavir, pocapavir]
EC50 [1, 16]: > 10000 nM
EC50 [2, 17]: > 10000 nM
EC50 [3, 18]: > 10000 nM
EC50 [4, 19]: > 10000 nM
activity against EV-D68 strains in words (four EV-D68 strains; RD cells): inactive

CC(=O)Oc1ccccc1C(=O)Nc1ncc([N+](=O)[O-])s1 [Nitazoxanide, nitazoxanide]
EC50 [1, 12]: > 10000 nM
EC50 [2, 13]: > 10000 nM
EC50 [3, 14]: > 10000 nM
EC50 [4, 15]: > 10000 nM

CCOC(=O)c1c(CSc2ccccc2)n(C)c2cc(Br)c(O)c(CN(C)C)c12 [Arbidol]
EC50 [1, 11]: > 10000 nM
EC50 [2, 11]: > 10000 nM
EC50 [3, 11]: > 10000 nM
EC50 [4, 11]: > 10000 nM

NC12CC3CC(CC(C3)C1)C2 [Amantidine]
EC50 [1, 11]: > 10000 nM
EC50 [2, 11]: > 10000 nM
EC50 [3, 11]: > 10000 nM
EC50 [4, 11]: > 10000 nM

CNCCC(Oc1ccc(C(F)(F)F)cc1)c1ccccc1 (centres unmarked) [Fluoxetine, fluoxetine]
activity against EV-D68 strains in words (four EV-D68 strains; RD cells): significant activity
maximal plasma levels [5]: < 200 nM

CCC(C)n1ncn(-c2ccc(N3CCN(c4ccc(OCC5COC(Cn6cncn6)(c6ccc(Cl)cc6Cl)O5)cc4)CC3)cc2)c1=O (centres unmarked) [Itraconazole, itraconazole]
EC50 [1, 12]: > 10000 nM
EC50 [2, 13]: > 10000 nM
EC50 [3, 14]: > 10000 nM
EC50 [4, 15]: > 10000 nM
activity against EV-D68 strains in words (four EV-D68 strains; RD cells): failed to inhibit
EC50 (EV-D68 Fermon strain): 290 to 10000 nM

OC(c1cc(C(F)(F)F)nc2c(C(F)(F)F)cccc12)C1CCCCN1 (centres unmarked) [Mefloquine, mefloquine]
EC50 [1, 12]: > 10000 nM
EC50 [2, 13]: > 10000 nM
EC50 [3, 14]: > 10000 nM
EC50 [4, 15]: > 10000 nM

CCOC(=O)/C=C/[C@H](C[C@@H]1CCNC1=O)NC(=O)[C@@H](CC(=O)[C@@H](NC(=O)c1cc(C)on1)C(C)C)Cc1ccc(F)cc1 [Rupintrivir, rupintrivir]
EC50 [1, 11]: 4.6 ± 1.6 nM
EC50 [2, 11]: 1.5 ± 3 nM
EC50 [3, 11]: 3.7 ± 7 nM
EC50 [4, 11]: 2 ± 0.5 nM
EC50 (four EV-D68 strains; Enterovirus D, EVD68, RD): 1.5 to 5.1 nM

C#CC[C@@H](C(=O)N[C@H](/C=C/C(=O)OCC)C[C@@H]1CCNC1=O)n1cccc(NC(=O)c2cc(C)on2)c1=O [V-7404]
EC50 [1, 12]: 26 ± 4 nM
EC50 [2, 13]: 27 ± 8 nM
EC50 [3, 14]: 24 ± 7 nM
EC50 [4, 15]: 3.5 ± 0.6 nM
EC50 (four EV-D68 strains; Enterovirus D, EVD68, RD): 1.5 to 5.1 nM

COc1ccc(CC(C)NCC(O)c2ccc(O)c(NC=O)c2)cc1 (centres unmarked) [Formoterol furmarate]
EC50 [1, 11]: > 10000 nM
EC50 [2, 11]: > 10000 nM
EC50 [3, 11]: > 10000 nM
EC50 [4, 11]: > 10000 nM

B1: DAS181: fusion protein of the catalytic domain of A. viscosus sialidase and a human amphiregulin GAG-binding anchoring domain (SEQ ID NOs: 15 and 16) (protein)
chain: MGDHPQATPAPAPDASTELPASMSQAQHLAANTATDNYRIPAITTAPNGDLLISYDERPKDNGNGGSDAPNPNHIVQRRSTDGGKTWSAPTYIHQGTETGKKVGYSDPSYVVDHQTGTIFNFHVKSYDQGWGGSRGGTDPENRGIIQAEVSTSTDNGWTWTHRTITADITKDKPWTARFAASGQGIQIQHGPHAGRLVQQYTIRTAGGAVQAVSVYSDDHGKTWQAGTPIGTGMDENKVVELSDGSLMLNSRASDGSGFRKVAHSTDGGQTWSEPVSDKNLPDSVDNAQIIRAFPNAAPDDPRAKVLLLSHSPNPRPWSRDRGTISMSCDDGASWTTSKVFHEPFVGYTTIAVQSDGSIGLLSEDAHNGADYGGIWYRNFTMNWLGEQCGQKPAKRKKKGGKNGKNRRNRKKKNPGDHPQATPAPAPDASTELPASMSQAQHLAANTATDNYRIPAITTAPNGDLLISYDERPKDNGNGGSDAPNPNHIVQRRSTDGGKTWSAPTYIHQGTETGKKVGYSDPSYVVDHQTGTIFNFHVKSYDQGWGGSRGGTDPENRGIIQAEVSTSTDNGWTWTHRTITADITKDKPWTARFAASGQGIQIQHGPHAGRLVQQYTIRTAGGAVQAVSVYSDDHGKTWQAGTPIGTGMDENKVVELSDGSLMLNSRASDGSGFRKVAHSTDGGQTWSEPVSDKNLPDSVDNAQIIRAFPNAAPDDPRAKVLLLSHSPNPRPWSRDRGTISMSCDDGASWTTSKVFHEPFVGYTTIAVQSDGSIGLLSEDAHNGADYGGIWYRNFTMNWLGEQCGQKPAKRKKKGGKNGKNRRNRKKKNP
EC50 [1, 16]: 3.6 ± 1.5 nM
EC50 [2, 17]: 2.6 ± 1.2 nM
EC50 [3, 18]: 4 ± 1.6 nM
EC50 [4, 19]: 1.2 ± 0.9 nM
EC50 (four EV-D68 strains; RD cells, all four EV-D68 strains): 1.2 to 4 nM
EC50 (EV-D68 strain Fermon; [20]): 1 ± 0.1 nM
EC50 (EV-D68 strain Fermon; [21]): 3.6 ± 1.5 nM
EC50 (EV-D68 strain Fermon; [22]): 1.2 ± 0.9 nM
EC50 [6, 20]: 3.2 ± 1 nM
EC50 [6, 21]: 4 ± 1.2 nM
EC50 [6, 22]: 4 ± 1.6 nM
EC50 [7, 20]: 2 ± 0.1 nM
EC50 [7, 21]: 4.3 ± 0.4 nM
EC50 [7, 22]: 3.6 ± 1.5 nM
EC50 [8, 20]: 2.7 ± 0.4 nM
EC50 [8, 21]: 3.4 ± 1 nM
EC50 [8, 22]: 2.6 ± 1.2 nM
potency in words [9]: low micromolar potency
DAS181 protein per unit of activity ([10]; pH 5.5): 0.77 µg
specific activity ([10]; pH 5.5, one unit releases 10 nmol MU in 10 minutes): 1,300 U/mg protein

— patent publication US10328128B2, “Treatment of infection by human enterovirus D68” (priority 2014, dated 2019)
